Experimental data taken from article PMC9319939, “Siccanin Is a Dual-Target Inhibitor of Plasmodium falciparum Mitochondrial Complex II and Complex III” (Pharmaceuticals, 2022).

Tests used:
P. falciparum Dd2 = assay: Growth inhibition of Dd2 parent; assay type: cell-based; details: Plasmodium falciparum, DD2, read-out: Growth inhibition EC50, Dd2
Procedure: P. falciparum 3D7-yDHODH was prepared and maintained as described previously. P. falciparum Dd2, and Dd2-derived mutant strains were kindly provided by David A. Fidock, and maintained at Nagasaki University essentially as described in reference, except without supplementation with WR99210.
Synchronized ring-form parasites (0.3% parasitemia) were prepared in complete medium containing different concentration of various compounds (at a fixed final DMSO concentration of 0.1% (v/v)) and distributed to 96-well plates at 100 μL/well. After 72 h of incubation, parasite growth was monitored by the previously described lactate dehydrogenase (PfLDH)-based assay method; plates were read using a SpectraMax® Paradigm spectrophotometer (Molecular Devices, Inc.; San Jose, CA, USA). EC50 values were calculated using Prism® ver.6.01 (GraphPad; San Diego, CA, USA). Values are presented as the means of three independent experiments.

Mammal complex II = details: ref Mogi et al. [34]; read-out: Siccanin IC50, Mammal, Complex II; cited from earlier work

**Q.** Which EC50 (P. falciparum Dd2) does the source give for Cc1cc(O)c2c(c1)O[C@@]1(C)CC[C@H]3C(C)(C)CCC[C@]34CO[C@@H]2[C@H]41 [Siccanin] here?
**A.** 12.4 µM

**Q.** What about the IC50 (Mammal complex II) of the same compound?
**A.** 861 µM
